Reference: ChEMBL document CHEMBL6103603, “Novel Imidazo[4,5-c]pyridine Compounds as TLR7 Agonists for Treating Cancer” (ACS Med Chem Lett, 2025)
pEC50: −log10 of the molar value.

Target: T1, Toll-like receptor 7 (Homo sapiens, UniProt Q9NYK1)
T1 sequence (Q9NYK1 whole entry): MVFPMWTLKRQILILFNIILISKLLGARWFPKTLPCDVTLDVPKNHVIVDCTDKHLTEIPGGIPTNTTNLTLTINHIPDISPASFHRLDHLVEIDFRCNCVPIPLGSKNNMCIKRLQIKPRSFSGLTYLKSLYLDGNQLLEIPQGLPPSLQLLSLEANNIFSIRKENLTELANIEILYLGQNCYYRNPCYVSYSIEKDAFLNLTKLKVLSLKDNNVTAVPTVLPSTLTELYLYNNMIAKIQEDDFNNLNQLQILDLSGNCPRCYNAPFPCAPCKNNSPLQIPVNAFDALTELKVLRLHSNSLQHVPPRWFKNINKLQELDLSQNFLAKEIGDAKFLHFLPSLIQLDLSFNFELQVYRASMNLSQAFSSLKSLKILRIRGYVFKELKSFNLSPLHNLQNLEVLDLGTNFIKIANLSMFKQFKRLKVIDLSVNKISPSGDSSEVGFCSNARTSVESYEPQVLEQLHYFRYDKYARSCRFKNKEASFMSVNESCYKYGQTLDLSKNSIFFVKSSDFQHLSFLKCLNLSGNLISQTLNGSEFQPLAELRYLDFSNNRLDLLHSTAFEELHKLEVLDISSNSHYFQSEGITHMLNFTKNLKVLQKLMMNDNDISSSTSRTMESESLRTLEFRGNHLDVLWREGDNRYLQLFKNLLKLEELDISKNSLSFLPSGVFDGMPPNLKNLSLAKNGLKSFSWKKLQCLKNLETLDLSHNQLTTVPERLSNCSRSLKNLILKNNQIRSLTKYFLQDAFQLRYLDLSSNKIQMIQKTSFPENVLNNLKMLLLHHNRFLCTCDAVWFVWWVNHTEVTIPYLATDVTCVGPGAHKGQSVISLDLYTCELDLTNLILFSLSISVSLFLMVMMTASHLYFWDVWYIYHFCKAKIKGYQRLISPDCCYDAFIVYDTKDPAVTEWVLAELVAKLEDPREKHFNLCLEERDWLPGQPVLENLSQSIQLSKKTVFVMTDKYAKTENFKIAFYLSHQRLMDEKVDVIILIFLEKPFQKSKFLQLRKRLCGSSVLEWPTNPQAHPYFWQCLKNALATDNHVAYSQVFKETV
Test: Agonist activity at TLR7 in HEK-Blue hTLR7 cells expressing NF-kappaB/AP-1 inducible SEAP reporter gene using Quanti-blue as substrate preincubated for 20 hrs followed by substrate addition and measured after 1 hr by spectrophotometric analysis
Type: cell-based

- pEC50: 8.00
SMILES: CCOCc1nc2c(N)nc(C)c(Sc3ccc(CN(C)C)c(O)c3)c2[nH]1
